# In patent US7615554B2, “Erastin and erastin binding proteins, and uses thereof” (Prolexys Pharmaceuticals, Inc., priority 2005, dated 2009):
# Assays:
# [1] = tested on: BJ primary cells; assay: Sensitization of BJ primary cells by co-treatment (calcein AM viability); type: cell-based, human; conditions: BJ (or BJ-TERT) cells, simultaneous treatment with camptothecin
# Source text: (A-C) Western blot of lysates from BJ, BJ-TERT, BJ-TERT/LT/ST, BJ-TERT/LT/ST/RAS^V12, BJ-TERT/LT/RAS^V12 and BJ-TERT/LT/RAS^V12/ST cells with an antibody directed against topoisomerase II (A) or TOPI (B, C). In panel (C), cells were transfected with a siRNA directed against TOPI, lamic A/C or with a control double strand DNA duplex of the same length (TOPI dsDNA). In each case, the blot was probed with an antibody against eIF-4E to identify differences in the amount of protein loaded. The relative amount is quantitated below each band. (D) A TOPI siRNA prevents cell death caused by camptothecin in engineered tumor cells. Cell number was determined after transfection with a siRNA directed against TOPI and treatment with the indicated concentrations of camptothecin. (E) Okadaic acid, an inhibitor of PP2A and other cellular phosphatases, sensitizes primary human cells to camptothecin. BJ primary cells were treated simultaneously with the indicated concentrations of both camptothecin and okadaic acid and the effect on calcein AM viability staining was determined. […] BJ primary cells were treated with the indicated concentrations of okadaic acid and the expression level of TOPI was determined by western blot. The relative amount is quantitated below each band.
# The compounds in group (iii) are camptothecin (CPT) and a novel compound from a combinatorial library, which Applicants have named erastin, for eradicator of RAS and ST-expressing cells (FIG. 2). Efficient CPT-induced and erastin-induced cell death requires the presence of both ST and RAS^V12 (FIGS. 3 and 4 and Table 1). Although CPT and erastin have a similar genetic basis of selectivity, they have distinct mechanisms of action. CPT is partially active in cells lacking RB function (via expression of E7), whereas erastin is not, and CPT requires two days to cause death in BJ-TERT/LT/ST/RAS^V12 cells, while erastin is 100% effective within 18 hours (FIGS. 3 and 4). […]
# [2] = tested on: BJ-TERT/LT/ST/RAS^V12 tumorigenic cells; assay: Calcein AM viability assay, BJ-TERT/LT/ST/RAS^V12 cells; type: cell-based, human
# Source text: Described here is work carried out to identify compounds with increased potency or activity in the presence of hTERT, LT, ST, E6, E7 or RAS^V12. Although the work described herein made use of hTERT, LT, ST, E6, E7 and RAS^V12 as transforming genes, future studies can make use of a wide variety of cancer-associated alleles using this methodology in order to define the signaling networks that involve many oncogenes and tumor suppressors. Engineered cell lines with these genetic elements were used to screen 23,550 compounds, including 20,000 compounds from a combinatorial library, 1,990 compounds from the National Cancer Institute diversity collection, and 1,540 biologically active known compounds that were selected and purchased by Applicant and formatted into a screenable collection. […] Cell viability was measured using the dye calcein acetoxymethyl ester (calcein AM) (Wang et al., 1993, Hum. Immunol. 37, 264-270), which is a non-fluorescent compound that freely diffuses into cells. […]
# Calcein acetoxylmethyl ester (AM) is a cell membrane-permeable, non-fluorescent compound that is cleaved by intracellular esterases to form the anionic, cell-impermeable, fluorescent compound calcein. […] Total fluorescence intensity in each well was recorded on a Packard Fusion platereader, and converted to a percent inhibition of signal by subtracting the instrument background and dividing by the average signal obtained when cells were not treated with any compound. […]
# Mean RFU (relative fluorescence units) for untreated cells was calculated by averaging columns 1, 2, and 23 (wells with cells but lacking compounds). The calcein background was calculated by averaging column 24 (wells with calcein, but lacking cells). Percentage inhibition of each well was calculated as [1−(RFU−calcein control)/(untreated cell−calcein control)*100]. […]
# [3] = tested on: engineered cell lines; assay: Selectivity across the engineered cell lines (calcein AM IC50 ratios); type: cell-based, human; conditions: from selectivity ratio for each subsequent pair of cell lines in a series
# Procedure: To calculate this selectivity score between two cell lines, the IC50 for a compound in one cell line was divided by the IC50 for the same compound in a second cell line. […] The “tumor selectivity score” was calculated for each compound, by dividing the IC50 value for the compound in the parental, primary BJ cells by the IC50 value for the compound in engineered BJ-TERTALT/ST/RAS^V12 cells, containing all four genetic elements required to create tumorigenic cells (Table 1).
# Applicants sought to determine the genetic basis of selectivity for each compound. That is, for each compound, they attempted to define the gene or combination of genes responsible for rendering cells sensitive to the compound (Table 1).
# The IC50 in primary BJ cells was divided by the IC50 in BJ-TERT/LT/ST/RAS^V12 tumorigenic cells to obtain a tumor selectivity ratio for each compound. The compound selectivity for each genetic element was determined by calculating the selectivity ratio for each subsequent pair of cell lines in a series.
# [4] = tested on: HT-1080 xenografts; assay: HT-1080 tumor treatment study; type: in vivo, mouse; conditions: nude Balb/c mice; 100 or 50 mg/Kg, QD×5 days, IP
# Procedure: Nude Balb/c (Nu/Nu strain, Charles River Laboratories), female, 5-6 week old (˜20 g average body weight).
# Both compounds were formulated in an identical manner. For the 100 mg/kg dose level, each compound was delivered at a concentration of 10.0 mg/ml, in an injection volume of 0.2 ml. For the 50 mg/kg dose level, each compound was delivered at a concentration of 5.0 mg/ml, in an injection volume of 0.2 ml. For both dose levels, the vehicle contained 0.025% Tween-80, 0.01% benzyl alcohol, 35 mM acetic acid (HOAc), 100 mM potassium phosphate-buffer, and 32 mM sucrose, pH=6.5.
# • A: PRLX compound 6 @ 100 mg/Kg, QD×5 days, IP, n=8 • B: PRLX compound 6 @ 50 mg/Kg, QD×5 days, IP, n=8 • C: PRLX compound 5 @ 100 mg/Kg, QD×5 days, IP, n=8 • D: PRLX compound 5 @ 50 mg/Kg, QD×5 days, IP, n=8 • E: Vehicle Control, QD×5 days, IP, n=8 • F: Untreated Control, n=8 Treatment Schedule:
# Beginning when the mean tumor volume reached ˜200 mm^3, and continuing through day 5, every day, each animal was administered a single IP injection of one of the above treatments, for a total of 5 doses. […]
# Starting on Day 1, all animals were weighed, and tumor dimensions (length (L) and width (W)) were measured, every other day. […]
# The resulting tumor volume values were averaged for each study group for each time point, and were then plotted against time. Variance was expressed as standard error of the mean (±SEM).
# [5] = tested on: PANC-1 xenografts; assay: PANC-1 tumor treatment study; type: in vivo; conditions: immunodeficient nude mouse; once a day for five consecutive days
# Procedure: The experimental plan for the PANC-1 study was essentially identical to that of the HT-1080 study outlined above in Example 10 with the following exceptions: approximately 30-40 mg fragment of passaged PANC-1 tumor tissue was implanted subcutaneously in the right flank of an immunodeficient nude mouse. Tumor growth was monitored daily and when the tumors reached approximately 100 mm^3, animals harboring similarly sized tumors were group matched and compound dosing was initiated. Administration of compound 5 occurred once a day for five consecutive days at the doses listed below. In the PANC-1 xenografts, gemcitabine, administered at the maximum tolerated dose for the model, was used as a control. The gemcitabine regimen was 180 mg/kg […] on every third day over a period of 9 days.
compound,measurement,setting,value
COc1cc([C@@H]2c3cc4c(cc3[C@H](O)[C@H]3COC(=O)[C@H]23)OCO4)cc(OC)c1OC [podophyllotoxin],sensitization to camptothecin,[1],does not sensitize BJ or BJ-TERT cells to CPT
"CCOc1ccccc1-n1c(C(C)N2CCN(C(=O)COc3ccc(Cl)cc3)CC2)nc2ccccc2c1=O (stereo not shown) [Erastin, erastin]",effectiveness of cell killing,"[2]; BJ-TERT/LT/ST/RAS^V12 cells, within 18 hours",100%
same,"time to irreversible, non-apoptotic cell death",[2]; ST- and RAS^V12-dependent,12 to 24 h
"NC(=O)c1cn([C@@H]2O[C@H](CO)[C@@H](O)[C@H]2O)c2ncnc(N)c12 [Sangivamycin, sangivamycin]",Genetic basis of Selectivity,[3],non-specific
"COc1cccc2c1C(=O)c1c(O)c3c(c(O)c1C2=O)C[C@@](O)(C(=O)CO)C[C@@H]3O[C@H]1C[C@H](N)[C@H](O)[C@H](C)O1 [Doxorubicin, doxorubicin]",Genetic basis of Selectivity,[3],TERT/RB
COc1ccc(C[C@H]2C(=O)N[C@@H](C)C(=O)N(C)[C@@H]3C(=O)N(C)[C@@H](Cc4ccc(O)c(c4)Oc4ccc(cc4)[C@@H]3O)C(=O)N[C@H](C)C(=O)N[C@@H](C)C(=O)N2C)cc1 [Bouvardin],Genetic basis of Selectivity,[3],non-specific
"O=C1c2c(O)ccc(O)c2C(=O)c2c(NCCNCCO)ccc(NCCNCCO)c21 [Mitoxantrone, mitoxantrone]",Genetic basis of Selectivity,[3],TERT/RB
"COc1cccc2c1C(=O)c1c(O)c3c(c(O)c1C2=O)C[C@@](O)(C(C)=O)C[C@@H]3O[C@H]1C[C@H](N)[C@H](O)[C@H](C)O1 [Daunorubicin, daunorubicin]",Genetic basis of Selectivity,[3],TERT/RB
"CS[C@H]1SC[C@H]2C(=O)N(C)[C@@H](C(C)C)C(=O)OC[C@@H](NC(=O)c3cnc4ccccc4n3)C(=O)N[C@@H](C)C(=O)N(C)[C@@H]1C(=O)N(C)[C@@H](C(C)C)C(=O)OC[C@@H](NC(=O)c1cnc3ccccc3n1)C(=O)N[C@@H](C)C(=O)N2C [Echinomycin, echinomycin]",Genetic basis of Selectivity,[3],non-specific
CCOc1ccccc1-n1c(C(C)N2CCNCC2)nc2ccccc2c1=O (stereo not shown) [Compound 6],antitumor activity in HT-1080 xenografts (tumor volume),[4],tumor growth inhibition
same,antitumor activity in PANC-1 xenografts (tumor volume),[5],tumor growth inhibition
"CCOc1ccccc1-n1c(CN2CCNCC2)nc2ccccc2c1=O [Compound 5, 3-(2-ethoxyphenyl)-2-(piperazin-1-ylmethyl)quinazolin-4(3H)-one]",antitumor activity in HT-1080 xenografts (tumor volume),[4],robust tumor regression
same,antitumor activity in PANC-1 xenografts (tumor volume),[5],tumor regression
